Key:
[1] = xn = mol fraction of the nth substance listed; details: 101 kPa, Liquid; for speed of sound: Sing-around technique in a fixed-path interferometer
[2] = refractive index (Na D-line) (dimensionless); xn = mol fraction of the nth substance listed; details: 101 kPa, Liquid, Standard Abbe refractometry

Cc1ccccc1O [2-methylphenol] + CCCCCCCCCCO
Details	mass density, 298.15 K [kg/m3]	mass density, 303.15 K [kg/m3]	mass density, 308.15 K [kg/m3]	refractive index, 298.15 K	refractive index, 303.15 K	refractive index, 308.15 K	speed of sound, 298.15 K [m/s]	speed of sound, 303.15 K [m/s]	speed of sound, 308.15 K [m/s]
[1], x1 = 0.0861	837.502	834.018	830.549	–	–	–	1385.1	1368	1351.1
[1], x1 = 0.1516	846.353	842.829	839.316	–	–	–	1389.3	1372.1	1355.2
[1], x1 = 0.2077	854.319	850.761	847.206	–	–	–	1393	1375.7	1358.8
[1], x1 = 0.2717	863.895	860.293	856.691	–	–	–	1397.2	1379.9	1363.1
[1], x1 = 0.334	873.784	870.135	866.475	–	–	–	1401.6	1384.3	1367.4
[1], x1 = 0.4103	886.741	883.035	879.298	–	–	–	1407.6	1390.3	1373.2
[1], x1 = 0.4797	899.465	895.693	891.869	–	–	–	1413.7	1396.5	1379.2
[1], x1 = 0.5545	914.345	910.475	906.559	–	–	–	1421.3	1404	1386.8
[1], x1 = 0.6165	927.694	923.735	919.727	–	–	–	1428.4	1411.1	1394.1
[1], x1 = 0.6875	944.316	940.209	936.089	–	–	–	1437.8	1420.7	1403.7
[1], x1 = 0.7538	961.343	957.079	952.828	–	–	–	1448.2	1431	1414.1
[1], x1 = 0.8245	981.399	976.894	972.475	–	–	–	1461.2	1444	1426.8
[1], x1 = 0.8811	999.121	994.379	989.769	–	–	–	1473.5	1456.2	1439.1
[1], x1 = 0.941	1019.75	1014.71	1009.79	–	–	–	1488.8	1471.6	1454.4
[1], x1 = 1	1042.32	1036.94	1031.55	–	–	–	1504.6	1487.4	1470.3
[2], x1 = 0.0861	–	–	–	1.43944	1.43742	1.43507	–	–	–
[2], x1 = 0.1516	–	–	–	1.44351	1.44139	1.43893	–	–	–
[2], x1 = 0.2077	–	–	–	1.44727	1.44505	1.44249	–	–	–
[2], x1 = 0.2717	–	–	–	1.45185	1.44952	1.44685	–	–	–
[2], x1 = 0.334	–	–	–	1.45667	1.45426	1.45145	–	–	–
[2], x1 = 0.4103	–	–	–	1.46311	1.46058	1.45761	–	–	–
[2], x1 = 0.4797	–	–	–	1.46956	1.46691	1.46379	–	–	–
[2], x1 = 0.5545	–	–	–	1.47719	1.47444	1.47117	–	–	–
[2], x1 = 0.6165	–	–	–	1.48412	1.48132	1.47792	–	–	–
[2], x1 = 0.6875	–	–	–	1.49283	1.49001	1.48643	–	–	–
[2], x1 = 0.7538	–	–	–	1.50182	1.49892	1.49522	–	–	–
[2], x1 = 0.8245	–	–	–	1.51242	1.50948	1.50566	–	–	–
[2], x1 = 0.8811	–	–	–	1.52175	1.51879	1.51489	–	–	–
[2], x1 = 0.941	–	–	–	1.53252	1.52952	1.52555	–	–	–
[2], x1 = 1	–	–	–	1.544	1.54099	1.53699	–	–	–

— the NIST ThermoML archive (doi:10.1021/je100362p)
